The values that follow are results of earlier work, collected in US12173009B2, “Diamine derivatives as inhibitors of leukotriene A4 hydrolase” (CELLTAXIS, LLC, priority 2005, dated 2024).

Molecules are shown by their SMILES. Where only a bound is given, the exact number is not on record here.

The Kd is the constant that tells how readily two partners part at equilibrium.

Data set [1] has as its system lower affinity LTB4 receptors on neutrophils. Particulars: additional lower affinity receptors on neutrophils.
For data set [2], the target named is BLT1. Particulars: Human BLT1 and its mouse, rat and guinea pig orthologues.
The target in data set [3] is T1, Human BLT2 (Homo sapiens, UniProt Q9NPC1).
T1 sequence (Q9NPC1 1-358): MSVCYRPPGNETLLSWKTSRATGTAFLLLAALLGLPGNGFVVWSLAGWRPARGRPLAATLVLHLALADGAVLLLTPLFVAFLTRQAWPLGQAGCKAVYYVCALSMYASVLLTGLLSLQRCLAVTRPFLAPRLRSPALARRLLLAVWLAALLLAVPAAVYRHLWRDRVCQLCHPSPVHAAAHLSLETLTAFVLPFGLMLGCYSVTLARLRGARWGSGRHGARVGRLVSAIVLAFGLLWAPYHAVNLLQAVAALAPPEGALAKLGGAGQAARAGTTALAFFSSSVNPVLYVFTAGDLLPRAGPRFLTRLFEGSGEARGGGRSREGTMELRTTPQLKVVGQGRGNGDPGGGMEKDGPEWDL
Particulars: Human BLT2 versus BLT1.

In data set [4] the target is T2, LTA4-h (Rattus norvegicus, UniProt P30349).
T2 construct: host or cells: rat peritoneum (endogenous enzyme)
T2 sequence (P30349 1-611): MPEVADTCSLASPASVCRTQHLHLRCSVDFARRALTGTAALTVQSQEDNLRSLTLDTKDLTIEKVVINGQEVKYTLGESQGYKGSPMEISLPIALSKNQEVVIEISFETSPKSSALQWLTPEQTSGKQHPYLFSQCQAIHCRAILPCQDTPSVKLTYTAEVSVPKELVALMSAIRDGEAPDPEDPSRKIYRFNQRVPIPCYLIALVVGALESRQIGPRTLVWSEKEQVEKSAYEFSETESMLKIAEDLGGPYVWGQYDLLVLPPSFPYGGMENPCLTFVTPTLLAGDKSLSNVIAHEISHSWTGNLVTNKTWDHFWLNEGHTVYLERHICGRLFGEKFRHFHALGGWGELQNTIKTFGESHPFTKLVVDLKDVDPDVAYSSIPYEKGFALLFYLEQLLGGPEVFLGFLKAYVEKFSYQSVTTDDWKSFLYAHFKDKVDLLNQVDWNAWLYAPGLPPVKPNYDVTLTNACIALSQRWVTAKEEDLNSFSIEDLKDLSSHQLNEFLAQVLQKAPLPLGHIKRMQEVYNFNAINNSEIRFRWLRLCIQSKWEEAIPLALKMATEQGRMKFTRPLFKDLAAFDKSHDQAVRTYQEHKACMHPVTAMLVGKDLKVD
Particulars: oral administration; rat peritoneum in vivo.

Data set [5] deals with T3, LTA4-h (Mus musculus, UniProt P24527).
T3 construct: host or cells: mouse blood (endogenous enzyme)
T3 sequence (P24527 1-611): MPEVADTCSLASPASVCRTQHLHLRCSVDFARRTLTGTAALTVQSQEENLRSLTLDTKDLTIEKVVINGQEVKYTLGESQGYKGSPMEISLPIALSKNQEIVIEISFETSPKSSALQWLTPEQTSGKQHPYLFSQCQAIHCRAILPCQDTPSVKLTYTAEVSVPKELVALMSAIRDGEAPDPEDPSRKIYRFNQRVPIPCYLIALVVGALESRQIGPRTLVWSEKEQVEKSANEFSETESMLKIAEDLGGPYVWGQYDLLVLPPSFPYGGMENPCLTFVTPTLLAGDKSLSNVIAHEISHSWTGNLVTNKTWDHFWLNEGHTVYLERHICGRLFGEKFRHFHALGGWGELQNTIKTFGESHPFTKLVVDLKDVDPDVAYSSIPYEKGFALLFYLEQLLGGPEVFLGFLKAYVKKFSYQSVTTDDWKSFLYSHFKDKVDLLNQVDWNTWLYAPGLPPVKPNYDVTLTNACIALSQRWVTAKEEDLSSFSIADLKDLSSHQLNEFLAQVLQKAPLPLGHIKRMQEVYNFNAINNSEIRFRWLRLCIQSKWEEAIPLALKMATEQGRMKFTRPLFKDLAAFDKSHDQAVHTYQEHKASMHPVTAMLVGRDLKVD
Particulars: oral administration; mouse blood ex vivo.

For data set [6], the system named is spontaneous colitis. Particulars: eight weeks of treatment; cotton top tamarins.

For the compound `CCCCC/C=C\C[C@@H](O)/C=C/C=C/C=C\[C@@H](O)CCCC(=O)O` [LTB4, Leukotriene B4], the Kd in data set [1] was > 60 nM; in data set [2], 0.1 to 0.7 nM. For the same compound, the “lower affinity of BLT2 for LTB4 than BLT1” value in data set [3] is 20 fold.
As to `CN(CCCOc1ccc(Cc2ccccc2)cc1)CCC(=O)O.Cl` [SC57461], the “ionophore-induced LTB4 production” value in data set [4] and in data set [5] was “caused inhibition” in each case. In addition, the colitis symptoms result in data set [6] is “significantly improved colitis symptoms”.
